# Test results: US20100272717A1, “COMBINATIONS OF THERAPEUTIC AGENTS FOR TREATING CANCER” (NOVARTIS AG, priority 2007, published 2010)
# What was measured:
# Format in all cases: in vivo
# [1] = test system: BT-474 human breast ductal carcinoma xenograft; assay: BT-474 human breast ductal carcinoma xenograft model, anti-tumor activity and tolerability; settings: FIG. 7; Compound A 20 mg/kg intravenously on days 1, 5 and 9
# Excerpt: (§1) Interactions of combinations can be approximated using a combination index presented by Clark (Breast Cancer Research and Treatment 46, 255-278 (1997)). Taking A to be the activity (T/C) of compound A given alone; B to be the activity of compound B given alone; C the activity in the vehicle controls and AB to be the activity in the combination. A+B, the following formulae can be applied: synergy−(AB)/C<(A/C)×B/C), additive−(AB)/C=(A/C)×(B/C) and antagonistic−(AB)/C>(A/C)×(B/C). […] For example if, the triple combination of A+B+C is to be compared to the activity of the three agents given alone then taking D to be the activity of the vehicle controls the formula defining synergy would be (ABC)/D<(A/D)×(B/D)×(C/D).
# [2] = test system: A549 human non-small cell lung carcinoma xenograft; assay: A549 human non-small cell lung carcinoma xenograft model, anti-tumor activity and tolerability
# Excerpt: as §1
# The effects of Compound A and Compound B are evaluated for their anti-tumor activity using the A549 human non-small cell lung carcinoma xenograft model.
# The effects of 5,6-dimethylxanthenone-4-acetic acid (Compound A) and 4-amino-5-fluoro-3-[5-(4-methylpiperazin-1-yl)-1H-benzimidazol-2-yl]quinolin-2(1H)-one (Compound C) are evaluated for their anti-tumor activity using the A549 human non-small cell lung carcinoma xenograft model.
# The effects of 5,6-dimethylxanthenone-4-acetic acid (Compound A) and everolimus are evaluated for their anti-tumor activity using the A549 human non-small cell lung carcinoma xenograft model.
# The effect of 5,6-dimethylxanthenone-4-acetic acid (Compound A) and patupilone are evaluated for their anti-tumor activity using the A549 human non-small cell lung carcinoma xenograft model.
# [3] = test system: MDA-MB-231 human breast adenocarcinoma xenograft; assay: MDA-MB-231 human breast adenocarcinoma xenograft model, anti-tumor activity and tolerability; settings: FIG. 1
# Protocol: The effect of 5,6-dimethylxanthenone-4-acetic acid (Compound A) and 2-methyl-2-[4-(3-methyl-2-oxo-8-quinolin-3-yl-2,3-dihydro-imidazo[4,5-c]quinolin-1-yl)-phenyl]-propionitrile (Compound B) are evaluated for their anti-tumor activity using the MDA-MB-231 human breast adenocarcinoma xenograft model.
# as §1
# [4] = test system: MCF-7 human breast adenocarcinoma xenograft; assay: MCF-7 human breast adenocarcinoma xenograft model, anti-tumor activity and tolerability; settings: for anti-tumor activity: FIG. 6 experiment, dose not stated
# Excerpt: A+B, the following formulae can be applied: synergy−(AB)/C<(A/C)×B/C), additive−(AB)/C=(A/C)×(B/C) and antagonistic−(AB)/C>(A/C)×(B/C). […] For example if, the triple combination of A+B+C is to be compared to the activity of the three agents given alone then taking D to be the activity of the vehicle controls the formula defining synergy would be (ABC)/D<(A/D)×(B/D)×(C/D).
compound,measurement,setting,value
"Cc1ccc2c(=O)c3cccc(CC(=O)O)c3oc2c1C [Compound A, 5,6-dimethylxanthenone-4-acetic acid]",anti-tumor activity (tumor growth),[1],inhibition of tumor growth
same,anti-tumor activity (tumor growth),"[2]; in vivo, ip, 15 mg/kg",inhibition of tumor growth
same,anti-tumor activity (tumor growth),"[3]; Compound A 18.6 mg/kg intravenously on days 1, 5 and 9",inhibition of tumor growth
same,anti-tumor activity (tumor growth),"[4]; FIG. 6, Compound A 20 mg/kg intravenously on days 1, 5 and 9",inhibition of tumor growth
"Cn1c(=O)n(-c2ccc(C(C)(C)C#N)cc2)c2c3cc(-c4cnc5ccccc5c4)ccc3ncc21 [Compound B, 2-methyl-2-[4-(3-methyl-2-oxo-8-quinolin-3-yl-2,3-dihydro-imidazo[4,5-c]quinolin-1-yl)-phenyl]-propionitrile]",anti-tumor activity,"[2]; FIG. 2, Compound B alone, 20 mg/kg",shows activity
same,anti-tumor activity (tumor growth),"[3]; Compound B alone, several dose levels",dose-dependent inhibition of tumor growth
"CN1CCN(c2ccc3[nH]c(-c4c(N)c5c(F)cccc5[nH]c4=O)nc3c2)CC1 [Compound C, 4-amino-5-fluoro-3-[5-(4-methylpiperazin-1-yl)-1H-benzimidazol-2-yl]quinolin-2(1H)-one]",anti-tumor activity,[2]; in vivo,dose-dependent activity
"CC(=O)O[C@@]12CO[C@@H]1C[C@H](O)[C@@]1(C)C(=O)[C@H](O)C3=C(C)[C@@H](OC(=O)[C@H](O)[C@@H](NC(=O)OC(C)(C)C)c4ccccc4)C[C@@](O)([C@@H](OC(=O)c4ccccc4)[C@H]21)C3(C)C [docetaxel, reference compound]",anti-tumor activity,[4],inhibition of tumor growth
"C/C(=C\c1csc(C)n1)[C@@H]1C[C@@H]2O[C@]2(C)CCC[C@H](C)[C@H](O)[C@@H](C)C(=O)C(C)(C)[C@@H](O)CC(=O)O1 [patupilone, (1S,3S,7S,10R,11S,12S,16R,1′E)-7,11-dihydroxy-8,8,10,12,16-pentamethyl-3-[methyl-2-(2-methylthiazol-4-yl)-vinyl]-4,17-dioxabicyclo[14.1.0]heptadecane-5,9-dione, reference compound]",anti-tumor activity (tumor growth),"[2]; FIG. 5, patupilone 2 mg/kg intravenously",inhibition of tumor growth
"bevacizumab: monoclonal antibody, marketed as AVASTIN",anti-tumor activity,[4],no anti-tumor activity
